Source: publication PMC3542272, “A Homogeneous, High-Throughput Assay for Phosphatidylinositol 5-Phosphate 4-Kinase with a Novel, Rapid Substrate Preparation” (PLoS ONE, 2013)
Several values for one entry are separate records, joined by “and”; a condition that tells them apart may be missing. Identical values can stand only once. Entries after “also recorded” stand apart in the source; their conditions may differ. Each block holds one molecule with its values, some of them ahead of it.

What was measured:
PI5P4Kα [1] = target: T1, PI5P4Kα (Homo sapiens, UniProt P48426); assay: Miniaturized 1536-well luciferase-coupled bioluminescence (ADP-Glo) PI5P4Kα enzyme activity assay; format: biochemical; conditions: for inhibitory activity against PI5P4Kα (in words): miniaturized assay / LOPAC1280 screen
T1 construct: made in house
T1 sequence (P48426 1-406): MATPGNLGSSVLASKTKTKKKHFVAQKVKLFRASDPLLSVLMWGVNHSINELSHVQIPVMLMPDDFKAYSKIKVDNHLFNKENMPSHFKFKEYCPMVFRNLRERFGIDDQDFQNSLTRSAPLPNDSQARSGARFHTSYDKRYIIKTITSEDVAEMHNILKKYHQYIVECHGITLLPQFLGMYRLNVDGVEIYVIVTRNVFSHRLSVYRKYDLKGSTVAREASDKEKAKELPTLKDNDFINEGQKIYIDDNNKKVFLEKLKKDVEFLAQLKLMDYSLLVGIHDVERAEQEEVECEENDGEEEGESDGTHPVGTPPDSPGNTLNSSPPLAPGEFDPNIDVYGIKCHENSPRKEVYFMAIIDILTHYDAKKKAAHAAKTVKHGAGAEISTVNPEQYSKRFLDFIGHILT
Method: PI5P4Kα (52.4 µL) was added to the lipid reagent (3 mL, described above) to form the enzyme-lipid mixture. First, 2 µL of the enzyme/lipid substrate reagent (2 µg/mL PI5P4Kα final concentration) were dispensed into a white solid-bottom 1536-well plate in columns 1–2, […] using a Flying Reagent Dispenser (FRD, Beckman Coulter, Fullerton, CA, USA). Into columns 3 and 4, 2 µL of a no-lipid and no-enzyme control were dispensed, respectively, where the lipid was replaced by DMSO or the enzyme was replaced by buffer (20 mM Hepes 7.4, 0.1% CHAPS) in the enzyme-lipid mixture. Then, 23 nL of the library compounds and control compounds were transferred by a 1536 pintool (Kalypsys Systems, San Diego, CA, USA) into wells 5–48 and 1–4, respectively. To initiate the reaction, 1 µL of the ATP solution (20 mM Hepes pH 7.4, 60 mM MgCl2, 0.015 mM ATP and 0.1% CHAPS) was added. The final concentration of DMSO in the reaction was 5%. The resulting mixture was incubated at room temperature in the dark for one hour, at which time 2 µL of ADP-Glo reagent 1 were added to stop the reaction and remove any remaining ATP. After a 45-minute incubation, 4 µL of the ADP-Glo reagent 2 were added and allowed to incubate for 30 minutes. The luminescence was then read with a ViewLux high-throughput CCD imager (Perkin Elmer, Waltham, MA, USA). A total of six plates were assayed: one DMSO plate for monitoring the background trends and five concentrations of the LOPAC library (152, 76, 15, 3 and 0.6 µM final assay concentrations, respectively). The top concentration in the assay was attained by two sequential pin transfers of the top concentration of the compound library.
Screening data were corrected and normalized, and concentration-response curves were derived using in-house algorithms. Overall assay performance, including trends in Z’ factor, % CV, and S/B, were recorded. Percent activity was computed after normalization using the median values of the uninhibited enzyme control (32 wells in column 1) and the no-enzyme, or 100% inhibited, control (32 wells, column 4). Additionally, the compound structures were evaluated, and the long chain compounds such as the C18 containing compounds from LOPAC^1280 that are likely to act by disrupting the lipid vesicles were eliminated. Selected actives were procured for re-testing in the primary screening assay and for use in the counter assays and substrate competition assay.

GST-PI5P4Kα = target: T2, GST-PI5P4Kα (Homo sapiens, UniProt P48426); assay: γ-32P-ATP incorporation assay and TLC (radiometric PI5P4K assay); format: biochemical
T2 construct: made in house
T2 sequence (P48426 1-406): T1 sequence (P48426 1-406)
Method: The PI5P4K assay was carried out as described in [10], [22], [23]. Briefly, the kinase reaction was carried out in a total of 50 µL of kinase buffer containing 20 µL of the resuspended lipids, 50 mM HEPES pH 7.4, 10 mM MgCl2, 10 µM non-radiolabeled ATP, 10 µCi [γ-^32P]-ATP with 0.1 µg of GST-PI5P4Kα for 7 minutes at room temperature. The reaction was terminated by adding 20 µL of 4 N HCl. Phosphoinositides were extracted by adding 70 µL of methanol/chloroform (1∶1, vol:vol) mix and subjected to TLC (thin-layer chromatography) separation using heat-activated 2% […] silica gel 60 plates (20 cm×20 cm, EMD Chemicals Inc., Billerica, MA, USA) and a 1-propanol/2 M acetic acid (65∶35, vol:vol) solvent system. The radiolabeled product, PI(4,5)P2, was quantified with a Phosphorimager (Molecular Dynamics, STORM840, GE Healthcare, Waukesha, WI, USA).

PI5P4Kα [2] = target: T1, PI5P4Kα; assay: Miniaturized 1536-well luciferase-coupled bioluminescence (ADP-Glo) PI5P4Kα enzyme activity assay; format: biochemical; conditions: freshly plated stock of reacquired compound, 11-point titration
IGF1R = system: IGF1R; parameters: method as in PMID 11123895; conditions: cited from earlier work
PI5P4Kα [3] = target: T1, PI5P4Kα; assay: Substrate (ATP) competition assay, miniaturized ADP-Glo PI5P4Kα assay; format: biochemical; conditions: for mode of inhibition with respect to ATP: IC50 vs [ATP]/Km, seven ATP concentrations; for dependence of potency on ATP: varied ATP concentration
Text: The experiment was otherwise conducted as described above for the miniaturized ADP-Glo enzyme assay.

[4] = target: insulin-like growth factor 1 receptor (IGF1R); parameters: method as in PMID 11123895; conditions: cited from earlier work
[5] = LOPAC1280 qHTS pilot screen, 5 µM ATP, 75 µM PI5P, 5% DMSO

SMILES: CCCCCCCCCCCCCCCCCCOC[C@H](COP(=O)(O)OCC[N+](C)(C)C)OC [1-O-Octadecyl-2-O-methyl-sn-glycero-3-phosphorylcholine]
inhibitory activity against PI5P4Kα (in words) (PI5P4Kα [1]): identified as inhibitors

SMILES: CC(C)(C)c1cc(C=C(C#N)C#N)cc(C(C)(C)C)c1O [AG17]
inhibition of PI5P4Kα (in words) (GST-PI5P4Kα; tested at 100 µM): not to significantly inhibit

SMILES: N#CC(C#N)=Cc1ccc(O)c(O)c1 [AG18]
inhibition of PI5P4Kα (in words) (GST-PI5P4Kα; tested at 100 µM): not to significantly inhibit

SMILES: COc1c(C)c2c(c(O)c1C/C=C(\C)CCC(=O)O)C(=O)OC2 [MP, mycophenolate]
inhibition of PI5P4Kα (in words) (GST-PI5P4Kα; tested at 100 µM): not to significantly inhibit

SMILES: CCCCCCCC/C=C\CCCCCCCC(=O)N[C@@H](CO)Cc1ccc(O)cc1 [OMDM-2, (R)-N-oleoyl Tyrosinol]
IC50 (PI5P4Kα [1]; weak inhibitors, ADP-Glo assay): ~30 µM
dependence of potency on ATP (PI5P4Kα [3]): did not vary with ATP

SMILES: CC(C)[C@H](CO)Nc1nc(Nc2ccc(C(=O)O)c(Cl)c2)c2ncn(C(C)C)c2n1 [PVB, purvalanol B]
inhibition of PI5P4Kα (in words) (GST-PI5P4Kα; tested at 10 µM due to solubility limitations): not to significantly inhibit

SMILES: Cc1[nH]c(/C=C2\C(=O)Nc3ccccc32)c(C)c1CCC(=O)O [SU6668]
inhibition of PI5P4Kα (in words) (GST-PI5P4Kα; tested at 100 µM): not to significantly inhibit

SMILES: CCCCCCCC/C=C\CCCCCCCC(N)=O [oleamide]
IC50 (PI5P4Kα [1]; weak inhibitors, ADP-Glo assay): ~30 µM
dependence of potency on ATP (PI5P4Kα [3]): did not vary with ATP

SMILES: N#CC(C#N)=Cc1ccc(O)c(O)c1 [tyrphostin 23]
IC50 (PI5P4Kα [1]; [5]): 45 µM

SMILES: N#C/C(=C\c1ccc(O)c(O)c1)C(=O)NCc1ccccc1 [tyrphostin AG 490]
IC50 (PI5P4Kα [1]; [5]): 89 µM

SMILES: N#C/C(=C\c1ccc(O)c(O)c1)C(=O)NCCCNC(=O)/C(C#N)=C/c1ccc(O)c(O)c1 [tyrphostin AG 537]
IC50 (PI5P4Kα [1]; [5]): 32 µM

SMILES: N#C/C(=C\c1c[nH]c2ccccc12)C(=O)c1ccc(O)c(O)c1 [tyrphostin AG 808]
IC50 (PI5P4Kα [1]; [5]): 18 µM

SMILES: COc1cc2ncnc(Nc3cccc(Cl)c3)c2cc1OC [tyrphostin AG 1478]
IC50 (PI5P4Kα [1]; [5]): 100 µM

More lines, main results first:

IC50 (PI5P4Kα [2]): 1 µM
IC50 (PI5P4Kα [1]; [5]): 2.5 µM and 2 µM
mode of inhibition with respect to ATP (PI5P4Kα [3]; listed as I-OMe tyrphostin AG-538): ATP-competitive inhibitor
Ki (PI5P4Kα [3]; seven ATP concentrations 0.25xKm to 10xKm, Km of ATP 5 µM): 0.5 µM
SMILES: COc1cc(/C=C(\C#N)C(=O)c2ccc(O)c(O)c2)cc(I)c1O [I-OMe-AG-538]
inhibition of IGF1R in a cell assay (in words) (IGF1R): inhibited IGF1R in a similar dose-dependent manner
mode of inhibition with respect to ATP (PI5P4Kα [3]): competitive inhibition; also recorded: competitive with respect to ATP

inhibition at 100 µM (GST-PI5P4Kα; tested at 100 µM): 75%
IC50 (PI5P4Kα [1]; [5]): 93 µM
inhibitory activity against PI5P4Kα (in words) (PI5P4Kα [1]): confirmed
SMILES: N#CC(C#N)=Cc1cc(O)c(O)c(O)c1 [Tyrphostin AG-82]

IC50 (PI5P4Kα [1]; [5]): 20 µM
SMILES: N#C/C(=C\c1ccc(O)c(O)c1)C(N)=S [tyrphostin 47]

IC50 (PI5P4Kα [1]; [5]): 5 µM
SMILES: N#CC(C#N)=C(N)/C(C#N)=C/c1cc(O)c(O)c(O)c1 [tyrphostin 51]

IC50 (PI5P4Kα [1]; [5]): 89 µM
SMILES: N#C/C(=C\c1ccc(O)c(O)c1)C(=O)Nc1ccccc1 [tyrphostin AG 494]

IC50 (PI5P4Kα [1]; [5]): 14 µM
SMILES: N#C/C(=C\c1ccc(O)c(O)c1)C(=O)c1ccc(O)c(O)c1 [tyrphostin AG 538]
inhibition of IGF1R in a cell assay (in words) (IGF1R): inhibited IGF1R in a similar dose-dependent manner
IC50 [4]: 0.06 µM

IC50 (PI5P4Kα [1]; [5]): 50 µM
SMILES: N#C/C(=C\c1ccc(O)c(O)c1)C(=O)NCCCc1ccccc1 [tyrphostin AG 555]
